Values quoted from earlier work, collected in patent US20220257611A1 (APTYS Pharmaceuticals SAS, priority 2019, published 2022).

What was measured:
[1] = in vivo
[2] = in vivo; remark: listed apart in the source

elimination half-life [2] | Structure (SMILES) | median effective analgesic dose (median value and 95% confidence interval) [1]
– | CC(=O)Nc1ccc(O)cc1 [acetaminophen, N-acetyl-p-amino-phenol] | 500 mg
four | CN1CCOC(c2ccccc2)c2ccccc2C1 (centres unmarked) [nefopam, 5-methyl-1-phenyl-1,3,4,6-tetrahydro-2,5-benzoxazocine] | –
